Results on 12 molecules are retold here after patent US20250092065A1, “2-(INDAZOL-5-YL)-6-(PIPERIDIN-4-YL)-1,7-NAPHTHYRIDINE DERIVATIVES AND RELATED COMPOUNDS AS MODULATORS FOR SPLICING NUCLEIC ACIDS AND FOR THE TREATMENT OF PROLIFERATIVE DISEASES” (REMIX THERAPEUTICS INC., priority 2022, published 2025).

SMILES strings stand for the structures. Structures can show the parent of a compound that is named as a salt. Where two headings read alike, the source gives them in different places.

In one data set the test system is HTT mRNA. The experiment in a line: RT-qPCR splicing assay, HTT mRNA canonical (CJ) and alternative (AJ) junction. Format: cell-based, human. Particulars: Homo sapiens; for AC50: HTT alternative junction mRNA, read-out: HTT AJ (increase in AJ mRNA, AC50). Put shortly:
(§1)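 Both isoforms, CJ and AJ, read by qPCR from crude lysates of treated A673 or K562 cells; 24 h, 37 °C, maximum 10 uM. Normalization: housekeeper ΔCt, then DMSO ΔΔCt.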
For orientation: Quantitative PCR measures a nucleic acid by following its amplification.

The next data set has as its system K562 cells. Put plainly: Cell Titer Glo 2.0 cell viability (toxicity) assay, K562. Particulars: 500 cells/well, 72 hours. (In general: In ATP-based viability assays light output follows the ATP content of the culture.)
A further data set deals with Target C. Put plainly: RT-qPCR canonical junction panel assay, Target C mRNA. Format: cell-based. The note with it: Table 4, read-out: Target C IC50 (decrease in CJ mRNA levels). Put shortly: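 IC50 is the concentration giving 50% CJ decrease, from a 4-parameter logistic fit of percent response; response derived from ΔΔCt against housekeeper and DMSO over a fixed ΔCt window, with canonical exon-junction qPCR in compound-treated K562 or A673 cells.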

For another data set, the system named is SMN2 mRNA. The experiment in a line: RT-qPCR splicing assay, SMN2 mRNA. The note with it: Homo sapiens, canonical junction qPCR panel, Table 4; read-out: SMN2 IC50 (decrease in CJ mRNA levels). Format: cell-based, human. Summed up: as §1
Where [1] appears, read: HTT canonical junction mRNA, RT-qPCR, read-out: HTT CJ (decrease in CJ mRNA levels, IC50).
Setting [2] is: canonical junction qPCR panel, Table 4, read-out: HTT IC50 (decrease in CJ mRNA levels).

Usually AC50 stands for the concentration giving half of the maximal activity seen. The term IC50 denotes the midpoint of a concentration-inhibition curve. `C[C@@H]1CN(c2ccc3nc(-c4cc5cn(C)nc5c(F)c4O)nc(C(=O)NCCO)c3c2)C[C@H](C)N1` [Compound 737, 6-[(3R,5S)-3,5-dimethylpiperazin-1-yl]-2-(7-fluoro-6-hydroxy-2-methylindazol-5-yl)-N-(2-hydroxyethyl)quinazoline-4-carboxamide]: the AC50 with HTT mRNA (RT-qPCR) was 1000 to 10000 nM. Moreover, the IC50 is 1000 to 10000 nM in the data set with HTT mRNA (setting [1]), 1000 to 10000 nM with HTT mRNA (setting [2]), 1000 to 10000 nM with Target C and < 100 nM with SMN2 mRNA. In addition, the “Effect of Exemplary Compounds on Cell Viability, K562” value (shortened to “Effect of Exemplary Compounds”) in the data set with K562 cells is reported as “A (A represents <100 nM)”.

As for `CNC(=O)c1nc(-c2cc3cn(C)nc3cc2O)nc2ccc(N3CCC(N(C)C)CC3)cc12` [Compound 742, 6-[4-(dimethylamino)piperidin-1-yl]-2-(6-hydroxy-2-methylindazol-5-yl)-N-methylquinazoline-4-carboxamide], in the data set with HTT mRNA (RT-qPCR), the AC50 was > 10000 nM. The IC50 in the data set with HTT mRNA (setting [1]) was 100 to 1000 nM; in the data set on HTT mRNA (setting [2]) it was 100 to 1000 nM; in the data set with Target C it was > 10000 nM; in the data set with SMN2 mRNA, < 100 nM. In addition, in the data set with K562 cells, the “Effect of Exemplary Compounds” value is recorded as “A (A represents <100 nM)”.

As for `C[C@@H]1CN(c2ccc3nc(-c4cc5cn(C)nc5c(F)c4O)ncc3c2)C[C@H](C)N1` [Compound 743, 5-{6-[(3R,5S)-3,5-dimethylpiperazin-1-yl]quinazolin-2-yl}-7-fluoro-2-methylindazol-6-ol], the AC50 in the data set on HTT mRNA (RT-qPCR) was in the range of 1000 to 10000 nM. Moreover, the IC50 in the data set on HTT mRNA (setting [1]) was > 10000 nM; in the data set on HTT mRNA (setting [2]), > 10000 nM; in the data set with Target C, 1000 to 10000 nM; in the data set on SMN2 mRNA it was 1000 to 10000 nM. Moreover, the “Effect of Exemplary Compounds” value with K562 cells is on record as “C (C represents 1000-9999 nM)”.

For `C[C@H]1CN(c2ccc3nc(-c4cc5cn(C)nc5c(F)c4O)ncc3c2)C[C@H](C)N1` [Compound 744, 5-{6-[(3S,5S)-3,5-dimethylpiperazin-1-yl]quinazolin-2-yl}-7-fluoro-2-methylindazol-6-ol], the AC50 in the data set on HTT mRNA (RT-qPCR) was < 100 nM. The IC50 was < 100 nM in the data set with HTT mRNA (setting [1]), < 100 nM in the data set on HTT mRNA (setting [2]), 1000 to 10000 nM in the data set with Target C and < 100 nM with SMN2 mRNA. In addition, the “Effect of Exemplary Compounds” value with K562 cells is reported as “A (A represents <100 nM)”.

For `C[C@@H]1CN(c2ccc3nc(-c4cc5cn(C)nc5c(F)c4O)ncc3c2)C[C@@H](C)N1` [Compound 745, 5-{6-[(3R,5R)-3,5-dimethylpiperazin-1-yl]quinazolin-2-yl}-7-fluoro-2-methylindazol-6-ol], the AC50 in the data set with HTT mRNA (RT-qPCR) lay in the range of 100 to 1000 nM. Further, the IC50 in the data set with HTT mRNA (setting [1]) was 100 to 1000 nM; in the data set on HTT mRNA (setting [2]), 100 to 1000 nM; in the data set on Target C, 1000 to 10000 nM; in the data set with SMN2 mRNA, < 100 nM. In addition, the “Effect of Exemplary Compounds” value in the data set with K562 cells is “A (A represents <100 nM)”.

On to `CN[C@@H]1CCN(c2cc3c(Cl)cc(-c4cc5cn(C)nc5c(C)c4O)nc3cc2C)C1` [Compound 748, 5-{4-chloro-7-methyl-6-[(3R)-3-(methylamino)pyrrolidin-1-yl]quinolin-2-yl}-2,7-dimethylindazol-6-ol], for which, in the data set with HTT mRNA (RT-qPCR), the AC50 is > 10000 nM. Besides, the IC50 in the data set with HTT mRNA (setting [1]) is > 10000 nM; in the data set with HTT mRNA (setting [2]) it was > 10000 nM; in the data set with Target C, > 10000 nM; in the data set on SMN2 mRNA, 100 to 1000 nM. Besides, the “Effect of Exemplary Compounds” value in the data set on K562 cells was “B (B represents 100-1000 nM)”.

For the molecule `CN[C@H]1CCN(c2cc3c(Cl)cc(-c4cc5cn(C)nc5c(C)c4O)nc3cc2C)C1` [Compound 749, 5-{4-chloro-7-methyl-6-[(3S)-3-(methylamino)pyrrolidin-1-yl]quinolin-2-yl}-2,7-dimethylindazol-6-ol], the AC50 with HTT mRNA (RT-qPCR) is > 10000 nM. Besides, the IC50 was > 10000 nM in the data set with HTT mRNA (setting [1]), > 10000 nM with HTT mRNA (setting [2]), 1000 to 10000 nM with Target C and < 100 nM with SMN2 mRNA. In the data set on K562 cells, the “Effect of Exemplary Compounds” value was “B (B represents 100-1000 nM)”.

As to `Cn1cc2cc(-c3ncc4cc(N5CCC(N6CCC6)CC5)ccc4n3)c(O)c(F)c2n1` [Compound 750, 5-{6-[4-(azetidin-1-yl)piperidin-1-yl]quinazolin-2-yl}-7-fluoro-2-methylindazol-6-ol], the AC50 in the data set on HTT mRNA (RT-qPCR) lay in the range of 100 to 1000 nM. The IC50 in the data set with HTT mRNA (setting [1]) was 100 to 1000 nM; in the data set with HTT mRNA (setting [2]) it was 100 to 1000 nM; in the data set with Target C it was 100 to 1000 nM; in the data set with SMN2 mRNA, < 100 nM. Besides, the “Effect of Exemplary Compounds” value in the data set with K562 cells was “B (B represents 100-1000 nM)”.

With `C[C@@H]1CN(c2ccc3nc(-c4cc5cn(C)nc5cc4O)ncc3c2)C[C@H](C)N1` [Compound 751, 5-{6-[(3R,5S)-3,5-dimethylpiperazin-1-yl]quinazolin-2-yl}-2-methylindazol-6-ol hydrochloride], in the data set on HTT mRNA (RT-qPCR), the AC50 was > 10000 nM. Moreover, the IC50 with HTT mRNA (setting [1]) is > 10000 nM; in the data set on HTT mRNA (setting [2]), > 10000 nM; with Target C it was > 10000 nM; in the data set with SMN2 mRNA, < 100 nM. Further, the “Effect of Exemplary Compounds” value in the data set on K562 cells is “B (B represents 100-1000 nM)”.

As to `C[C@H]1CN(c2ccc3nc(-c4cc5cn(C)nc5cc4O)ncc3c2)C[C@H](C)N1` [Compound 752, 5-{6-[(3S,5S)-3,5-dimethylpiperazin-1-yl]quinazolin-2-yl}-2-methylindazol-6-ol], the concentration at half-maximal activity (AC50) in the data set with HTT mRNA (RT-qPCR) lay in the range of 1000 to 10000 nM. For the same molecule, the IC50 in the data set with HTT mRNA (setting [1]) is 1000 to 10000 nM; in the data set on HTT mRNA (setting [2]) it was 1000 to 10000 nM; with Target C it was > 10000 nM; with SMN2 mRNA it was < 100 nM. Besides, in the data set on K562 cells, the “Effect of Exemplary Compounds” value was “B (B represents 100-1000 nM)”.

For `C[C@@H]1CN(c2ccc3nc(-c4cc5cn(C)nc5cc4O)ncc3c2)C[C@@H](C)N1` [Compound 753, 5-{6-[(3R,5R)-3,5-dimethylpiperazin-1-yl]quinazolin-2-yl}-2-methylindazol-6-ol], in the data set with HTT mRNA (RT-qPCR), the AC50 lay in the range of 1000 to 10000 nM. In addition, the IC50 with HTT mRNA (setting [1]) was 1000 to 10000 nM; with HTT mRNA (setting [2]), 1000 to 10000 nM; in the data set on Target C, > 10000 nM; with SMN2 mRNA, < 100 nM. In the data set with K562 cells, the “Effect of Exemplary Compounds” value was “A (A represents <100 nM)”.

In the case of `CCN(CC)C1CCN(c2ccc3nc(-c4cc5cn(C)nc5c(F)c4O)ncc3c2)CC1` [Compound 756, 5-{6-[4-(diethylamino)piperidin-1-yl]quinazolin-2-yl}-7-fluoro-2-methylindazol-6-ol], the AC50 in the data set with HTT mRNA (RT-qPCR) lay in the range of 100 to 1000 nM. Also, the IC50 is 100 to 1000 nM with HTT mRNA (setting [1]), 100 to 1000 nM in the data set on HTT mRNA (setting [2]), 100 to 1000 nM in the data set on Target C and < 100 nM in the data set with SMN2 mRNA. For the same molecule, the “Effect of Exemplary Compounds” value in the data set with K562 cells is recorded as “B (B represents 100-1000 nM)”.
